Data as given in ChEMBL document CHEMBL1201862, “PubChem BioAssay data set” (2004).
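Five compound concentrations were applied to cells in 96-well plates for 48 hours; endpoints were derived by simple linear interpolation of the resulting dose-response curve. GI50 = concentration required for 50% inhibition of growth.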 Activity calls are given as the source filed them. No stated cut-off is given here; in the data, active = GI50 up to about 1.1 µM and inactive = higher.

Columns and labels:
Test in all cases: NCI-60 cell line screen, 48 h
[1] = test system: HCT-15
[2] = test system: NCI-H23
[3] = test system: SN12C
[4] = test system: OVCAR-4
[5] = test system: SF-268
[6] = test system: COLO 205
[7] = test system: CCRF-CEM
[8] = test system: RXF 393
[9] = test system: MDA-MB-435
[10] = test system: SNB-19
[11] = test system: BT-549
[12] = test system: K562
[13] = test system: TK-10
[14] = test system: NCI/ADR-RES
[15] = test system: OVCAR-3
[16] = test system: EKVX
[17] = test system: SW-620
[18] = test system: MDA-N
[19] = test system: SR
[20] = test system: UO-31
[21] = test system: HOP-62
[22] = test system: KM12
[23] = test system: SNB-75
[24] = test system: M14
[25] = test system: HT-29
[26] = test system: UACC-62
[27] = test system: ACHN
[28] = test system: T47D
[29] = test system: NCI-H460
[30] = test system: SK-OV-3
[31] = test system: 786-0
[32] = test system: SK-MEL-2
[33] = test system: HCT-116
[34] = test system: MCF7
[35] = test system: NCI-H226
[36] = test system: RPMI-8226
[37] = test system: DU-145
[38] = test system: Malme-3M
[39] = test system: MOLT-4
[40] = test system: OVCAR-5
[41] = test system: OVCAR-8
[42] = test system: A498
[43] = test system: IGROV-1
[44] = test system: SK-MEL-28
[45] = test system: A549
[46] = test system: SF-539
[47] = test system: HCC 2998
[48] = test system: LOX IMVI
[49] = test system: MDA-MB-231
[50] = test system: SF-295
[51] = test system: NCI-H522
[52] = test system: SK-MEL-5
[53] = test system: CAKI-1
[54] = test system: UACC-257
[55] = test system: PC-3
[56] = test system: U-251
[57] = test system: Hs-578T

Measured: GI50

C[C@]12CC[C@H](O)CC1=CC[C@@H]1[C@@H]2CC[C@]2(C)NC(=O)/C(=C\c3ccccc3)C[C@@H]12
inactive: [2] 18.2 µM | [3] 23 µM | [4] 5.64 µM | [5] 15.5 µM | [6] 16 µM | [7] 17 µM | [8] 13.5 µM | [9] 18.3 µM | [10] 14.7 µM | [11] 17 µM | [12] 39.6 µM | [13] 28.2 µM | [14] 18.5 µM | [15] 11.9 µM | [16] 14 µM | [17] 16.9 µM | [18] 24.3 µM | [19] 28.7 µM | [20] 12.9 µM | [21] 13.5 µM | [22] 14.5 µM | [23] 19.6 µM | [24] 15.8 µM | [25] 14.3 µM | [26] 18.3 µM | [27] 17.4 µM | [28] 12.3 µM | [29] 23.9 µM | [30] 18.9 µM | [31] 19.8 µM | [32] 12.6 µM | [33] 14.2 µM | [34] 14.4 µM | [35] 14.9 µM | [36] 21.6 µM | [37] 16.4 µM | [38] 15.8 µM | [39] 26.5 µM | [40] 14.5 µM | [41] 21.1 µM | [42] 15.2 µM | [43] 15.9 µM | [44] 16.7 µM | [45] 14.6 µM | [46] 14.6 µM | [47] 13.4 µM | [48] 16.8 µM | [49] 16 µM | [50] 16.5 µM | [51] 10.5 µM | [52] 12.9 µM | [53] 25.2 µM | [54] 23.3 µM | [55] 13.3 µM | [56] 14.1 µM
17.4 µM: [1]

C=CCn1c(-c2ccccc2)cs/c1=N\C(P(=O)(O)O)P(=O)(O)O
> 100 µM: [1]
inactive: [2] > 100 µM | [5] > 100 µM | [6] > 100 µM | [8] > 100 µM | [10] > 100 µM | [11] > 100 µM | [13] > 100 µM | [14] > 100 µM | [15] > 100 µM | [16] > 100 µM | [18] > 100 µM | [20] > 100 µM | [21] > 100 µM | [22] > 100 µM | [24] > 100 µM | [26] > 100 µM | [27] > 100 µM | [29] > 100 µM | [30] > 100 µM | [31] > 100 µM | [33] > 100 µM | [34] > 100 µM | [35] > 100 µM | [37] > 100 µM | [38] > 100 µM | [40] > 100 µM | [43] > 100 µM | [45] > 100 µM | [46] > 100 µM | [47] > 100 µM | [48] > 100 µM | [49] > 100 µM | [50] > 100 µM | [51] > 100 µM | [52] > 100 µM | [53] > 100 µM | [54] > 100 µM | [55] > 100 µM

COc1ccc(-c2cc(O)c3cccnc3n2)cc1
34.3 µM: [1]
inactive: [2] 34.7 µM | [3] 36.7 µM | [4] 67.6 µM | [5] 40.6 µM | [6] 19.1 µM | [7] 28.1 µM | [8] 44.5 µM | [10] 78.5 µM | [11] 77.4 µM | [12] 25.8 µM | [13] 44.4 µM | [14] 47.6 µM | [16] > 100 µM | [17] 32.2 µM | [20] 54.6 µM | [21] 44.3 µM | [22] 33.7 µM | [24] 28.3 µM | [25] 15.7 µM | [26] 23.2 µM | [27] 53.7 µM | [28] 51.1 µM | [30] 26.7 µM | [32] 83.8 µM | [34] 19 µM | [35] 45.1 µM | [57] 24.9 µM | [36] 22.9 µM | [37] 64.6 µM | [38] 31.9 µM | [39] 29.3 µM | [40] > 100 µM | [41] 57.1 µM | [42] 63.5 µM | [43] 26.7 µM | [44] 44 µM | [45] 53.7 µM | [46] 42.4 µM | [47] 82 µM | [48] 28.1 µM | [49] > 100 µM | [51] 41.1 µM | [53] 17.9 µM | [54] 26.2 µM
